Reference: PMC11530689, “Anti colorectal cancer activity and in silico studies of novel pyridine nortopsentin analog as cyclin dependent kinase 6 inhibitor” (Scientific Reports, 2024)

Columns and labels:
Assay in all cases: NCI 60 cell line screen
LOX IMVI = format: cell-based; details: Melanoma, single concentration 10^−5 M
Method: (§1) The cytotoxic activity of nortopsintin analogs (4a-4j) was determined by the national cancer institute (NCI, Bethesda, Maryland, USA) against 60 different cancer cell lines at a single concentration of (10^-5 M). For the determination of IC50 value, we used MTT assay kit (Sigma) according to the manufacturer's protocol. HCT-116 cells were seeded into a 96-well plate at a concentration of 20,000 cells/well. After 24 h, the media was aspirated and replaced with serum-free media containing serial dilutions of the 4i compound. […] The percentage of cytotoxicity was calculated using the following equation: % Cytotoxicity = [1 - ([…])] × 100.

U251 = format: cell-based; details: U251, CNS Cancer; single concentration 10^−5 M
Method: as §1

MOLT-4 = format: cell-based; details: MOLT-4, Leukemia; single concentration 10^−5 M
Method: as §1

NCI-H522 = format: cell-based; details: NCI-H522, Non-Small Cell Lung Cancer; single concentration 10^−5 M
Method: as §1

NCI-H460 = format: cell-based; details: NCI-H460, Non-Small Cell Lung Cancer; single concentration 10^−5 M
Method: as §1

NCI-H226 = format: cell-based; details: NCI-H226, Non-Small Cell Lung Cancer; single concentration 10^−5 M
Method: as §1

UACC-62 = format: cell-based; details: UACC-62, Melanoma; single concentration 10^−5 M
Method: as §1

HCC-2998 = format: cell-based; details: HCC-2998, Colon Cancer; single concentration 10^−5 M
Method: as §1

OVCAR-4 = format: cell-based; details: OVCAR-4, Ovarian Cancer; single concentration 10^−5 M
Method: as §1

786-0 = format: cell-based; details: 786-0, Renal Cancer; single concentration 10^−5 M
Method: as §1

BT-549 = format: cell-based; details: BT-549, Breast Cancer; single concentration 10^−5 M
Method: as §1

MDA-MB-435 = format: cell-based; details: MDA-MB-435, Melanoma; single concentration 10^−5 M
Method: as §1

HL-60 (TB) = format: cell-based; details: Leukemia, single concentration 10^−5 M
Method: as §1

SNB-75 = format: cell-based; details: SNB-75, CNS Cancer; single concentration 10^−5 M
Method: as §1

SF-295 = format: cell-based; details: SF-295, CNS Cancer; single concentration 10^−5 M
Method: as §1

SK-MEL-28 = format: cell-based; details: SK-MEL-28, Melanoma; single concentration 10^−5 M
Method: as §1

MDA-MB-468 = format: cell-based; details: MDA-MB-468, Breast Cancer; single concentration 10^−5 M
Method: as §1

NCI-H23 = format: cell-based; details: NCI-H23, Non-Small Cell Lung Cancer; single concentration 10^−5 M
Method: as §1

A549/ATCC = format: cell-based; details: Non-Small Cell Lung Cancer, single concentration 10^−5 M
Method: as §1

PC-3 = format: cell-based; details: PC-3, Prostate Cancer; single concentration 10^−5 M
Method: as §1

TK-10 = format: cell-based; details: TK-10, Renal Cancer; single concentration 10^−5 M
Method: as §1

SK-OV-3 = format: cell-based; details: SK-OV-3, Ovarian Cancer; single concentration 10^−5 M
Method: as §1

CAKI-1 = format: cell-based; details: CAKI-1, Renal Cancer; single concentration 10^−5 M
Method: as §1

RPMI-8226 = format: cell-based; details: RPMI-8226, Leukemia; single concentration 10^−5 M
Method: as §1

COLO205 = format: cell-based; details: COLO205, Colon Cancer; single concentration 10^−5 M
Method: as §1

UACC-257 = format: cell-based; details: UACC-257, Melanoma; single concentration 10^−5 M
Method: as §1

OVCAR-5 = format: cell-based; details: OVCAR-5, Ovarian Cancer; single concentration 10^−5 M
Method: as §1

HS 578T = format: cell-based; details: Breast Cancer, single concentration 10^−5 M
Method: as §1

RXF 393 = format: cell-based; details: RXF 393, Renal Cancer; single concentration 10^−5 M
Method: as §1

MDA-MB-231/ATCC = format: cell-based; details: Breast Cancer, single concentration 10^−5 M
Method: as §1

M14 = format: cell-based; details: M14, Melanoma; single concentration 10^−5 M
Method: as §1

SK-MEL-2 = format: cell-based; details: SK-MEL-2, Melanoma; single concentration 10^−5 M
Method: as §1

DU-145 = format: cell-based; details: DU-145, Prostate Cancer; single concentration 10^−5 M
Method: as §1

T-47D = format: cell-based; details: Breast Cancer, single concentration 10^−5 M
Method: as §1

HT29 = format: cell-based; details: HT29, Colon Cancer; single concentration 10^−5 M
Method: as §1

NCI-H322M = format: cell-based; details: Non-Small Cell Lung Cancer, single concentration 10^−5 M
Method: as §1

HCT-116 = format: cell-based, human; details: HCT-116, Colon Cancer; single concentration 10^−5 M
Method: as §1

COc1cc(-c2cc(-c3c[nH]c4ccccc34)nc(-c3c[nH]c4ccccc34)c2C#N)cc(OC)c1OC [4g]
Growth % (LOX IMVI): 98.85% | Growth % (U251): 100.17% | Growth % (MOLT-4): 100.72% | Growth % (NCI-H522): 93.33% | Growth % (NCI-H460): 106.65% | Growth % (NCI-H226): 87.22% | Growth % (UACC-62): 87.61% | Growth % (HCC-2998): 107.87% | Growth % (OVCAR-4): 103.83% | Growth % (786-0): 102.99% | Growth % (BT-549): 101.50% | Growth % (MDA-MB-435): 100.31% | Growth % (HL-60 (TB)): 101.32% | Growth % (SNB-75): 77.85% | Growth % (SF-295): 95.05% | Growth % (SK-MEL-28): 107.46% | Growth % (MDA-MB-468): 93.79% | Growth % (NCI-H23): 93.03% | Growth % (A549/ATCC): 99.60% | Growth % (PC-3): 91.47% | Growth % (TK-10): 128.09% | Growth % (SK-OV-3): 97.19% | Growth % (CAKI-1): 75.97% | Growth % (RPMI-8226): 97.18% | Growth % (COLO205): 106.57% | Growth % (UACC-257): 104.77% | Growth % (OVCAR-5): 103.55% | Growth % (HS 578T): 99.50% | Growth % (RXF 393): 120.31% | Growth % (MDA-MB-231/ATCC): 82.84% | Growth % (M14): 98.40% | Growth % (SK-MEL-2): 92.02% | Growth % (DU-145): 106.13% | Growth % (T-47D): 96.11% | Growth % (HT29): 105.35% | Growth % (NCI-H322M): 93.11% | Growth % (HCT-116): 104.41%

N#Cc1c(-c2ccccc2)cc(-c2c[nH]c3ccccc23)nc1-c1c[nH]c2ccccc12 [4a]
Growth % (LOX IMVI): 100.06% | Growth % (U251): 94.26% | Growth % (MOLT-4): 102.45% | Growth % (NCI-H522): 97.10% | Growth % (NCI-H460): 106.27% | Growth % (NCI-H226): 89.89% | Growth % (UACC-62): 94.92% | Growth % (HCC-2998): 93.57% | Growth % (OVCAR-4): 103.65% | Growth % (786-0): 102.19% | Growth % (BT-549): 94.69% | Growth % (MDA-MB-435): 102.63% | Growth % (HL-60 (TB)): 103.72% | Growth % (SNB-75): 81.21% | Growth % (SF-295): 96.36% | Growth % (SK-MEL-28): 109.51% | Growth % (MDA-MB-468): 93.05% | Growth % (NCI-H23): 95.64% | Growth % (A549/ATCC): 98.73% | Growth % (PC-3): 92.44% | Growth % (TK-10): 123.79% | Growth % (SK-OV-3): 93.31% | Growth % (CAKI-1): 87.26% | Growth % (RPMI-8226): 100.70% | Growth % (COLO205): 108.26% | Growth % (UACC-257): 106.98% | Growth % (OVCAR-5): 103.05% | Growth % (HS 578T): 93.45% | Growth % (RXF 393): 94.99% | Growth % (MDA-MB-231/ATCC): 92.64% | Growth % (M14): 100.81% | Growth % (SK-MEL-2): 97.65% | Growth % (DU-145): 108.34% | Growth % (T-47D): 86.69% | Growth % (HT29): 102.69% | Growth % (NCI-H322M): 105.41% | Growth % (HCT-116): 103.11%

N#Cc1c(-c2ccc(F)cc2)cc(-c2c[nH]c3ccccc23)nc1-c1c[nH]c2ccccc12 [4d]
Growth % (LOX IMVI): 107.36% | Growth % (U251): 94.85% | Growth % (MOLT-4): 103.02% | Growth % (NCI-H522): 97.04% | Growth % (NCI-H460): 104.14% | Growth % (NCI-H226): 94.04% | Growth % (UACC-62): 98.33% | Growth % (HCC-2998): 109.40% | Growth % (OVCAR-4): 101.04% | Growth % (786-0): 99.50% | Growth % (BT-549): 108.84% | Growth % (MDA-MB-435): 107.27% | Growth % (HL-60 (TB)): 98.89% | Growth % (SNB-75): 98.55% | Growth % (SF-295): 102.68% | Growth % (SK-MEL-28): 106.51% | Growth % (MDA-MB-468): 99.29% | Growth % (NCI-H23): 100.43% | Growth % (A549/ATCC): 101.42% | Growth % (PC-3): 103.05% | Growth % (TK-10): 127.59% | Growth % (SK-OV-3): 96.90% | Growth % (CAKI-1): 92.51% | Growth % (RPMI-8226): 100.93% | Growth % (COLO205): 113.48% | Growth % (UACC-257): 107.07% | Growth % (OVCAR-5): 109.33% | Growth % (HS 578T): 95.18% | Growth % (RXF 393): 111.59% | Growth % (MDA-MB-231/ATCC): 102.47% | Growth % (M14): 97.40% | Growth % (SK-MEL-2): 96.13% | Growth % (DU-145): 106.26% | Growth % (T-47D): 89.92% | Growth % (HT29): 110.19% | Growth % (NCI-H322M): 106.25% | Growth % (HCT-116): 104.67%

N#Cc1c(-c2ccc(Br)cc2)cc(-c2c[nH]c3ccccc23)nc1-c1c[nH]c2ccccc12 [4b]
Growth % (LOX IMVI): 99.48% | Growth % (U251): 94.64% | Growth % (MOLT-4): 99.47% | Growth % (NCI-H522): 94.73% | Growth % (NCI-H460): 106.47% | Growth % (NCI-H226): 87.72% | Growth % (UACC-62): 94.51% | Growth % (HCC-2998): 114.86% | Growth % (OVCAR-4): 102.16% | Growth % (786-0): 101.55% | Growth % (BT-549): 103.55% | Growth % (MDA-MB-435): 108.30% | Growth % (HL-60 (TB)): 102.74% | Growth % (SNB-75): 91.48% | Growth % (SF-295): 99.37% | Growth % (SK-MEL-28): 112.22% | Growth % (MDA-MB-468): 104.30% | Growth % (NCI-H23): 93.93% | Growth % (A549/ATCC): 98.58% | Growth % (PC-3): 93.93% | Growth % (TK-10): 146.78% | Growth % (SK-OV-3): 100.81% | Growth % (CAKI-1): 81.43% | Growth % (RPMI-8226): 102.03% | Growth % (COLO205): 111.43% | Growth % (UACC-257): 107.82% | Growth % (OVCAR-5): 107.40% | Growth % (HS 578T): 97.14% | Growth % (RXF 393): 109.74% | Growth % (MDA-MB-231/ATCC): 101.07% | Growth % (M14): 102.89% | Growth % (SK-MEL-2): 95.21% | Growth % (DU-145): 107.37% | Growth % (T-47D): 85.37% | Growth % (HT29): 107.82% | Growth % (NCI-H322M): 104.62% | Growth % (HCT-116): 104.37%
